Source: patent US12522595B2, “Bicyclic ether O-glycoprotein-2-acetamido-2-deoxy-3-D-glucopyranosidase inhibitors” (BIOGEN MA INC., priority 2019, dated 2026)
pIC50: −log10 of the molar value.

Target: T1, Recombinant full length human OGA enzyme (Homo sapiens, UniProt O60502)
T1 construct: Recombinant full length human OGA enzyme was purchased from Origene; purchased Origene
T1 sequence (O60502 1-916): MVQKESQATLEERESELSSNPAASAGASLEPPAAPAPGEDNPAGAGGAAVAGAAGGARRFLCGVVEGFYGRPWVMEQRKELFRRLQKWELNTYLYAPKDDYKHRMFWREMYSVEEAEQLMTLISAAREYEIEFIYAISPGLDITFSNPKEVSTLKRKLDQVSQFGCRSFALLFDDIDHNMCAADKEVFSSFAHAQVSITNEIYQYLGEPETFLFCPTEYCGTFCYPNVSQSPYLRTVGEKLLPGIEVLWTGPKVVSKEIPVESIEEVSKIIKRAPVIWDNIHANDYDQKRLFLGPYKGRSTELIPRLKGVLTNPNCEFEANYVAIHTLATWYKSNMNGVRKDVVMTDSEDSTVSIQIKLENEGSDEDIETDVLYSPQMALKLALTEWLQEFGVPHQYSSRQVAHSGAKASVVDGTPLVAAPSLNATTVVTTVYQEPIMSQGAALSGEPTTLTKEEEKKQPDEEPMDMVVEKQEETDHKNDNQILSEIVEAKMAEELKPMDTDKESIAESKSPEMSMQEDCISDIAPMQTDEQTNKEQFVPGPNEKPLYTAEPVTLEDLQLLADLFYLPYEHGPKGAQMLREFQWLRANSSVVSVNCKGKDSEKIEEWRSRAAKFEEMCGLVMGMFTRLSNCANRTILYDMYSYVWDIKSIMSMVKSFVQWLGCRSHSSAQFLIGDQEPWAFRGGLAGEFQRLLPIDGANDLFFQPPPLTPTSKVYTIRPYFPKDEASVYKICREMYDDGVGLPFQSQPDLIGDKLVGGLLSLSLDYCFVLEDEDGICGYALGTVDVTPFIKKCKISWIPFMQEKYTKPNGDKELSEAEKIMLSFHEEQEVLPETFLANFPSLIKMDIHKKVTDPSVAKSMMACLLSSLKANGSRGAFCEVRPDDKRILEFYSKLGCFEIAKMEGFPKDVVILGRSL
Assay: OGA enzyme inhibition biochemical assay
Settings: 1 nM OGA, 100 μM 4-MUGlcNAc (Km), pH 6.4, 90 minutes at room temperature, 10-point dose-response from 20 μM
Procedure: N-(5-(((2S,4R)-4-([1,2,4]triazolo[4,3-a]pyrazin-3-yloxy)-2-methylpyrrolidin-1-yl)methyl)-4-fluorothiazol-2-yl)acetamide: The title compound was prepared in an analogous manner as Example 172 from 3-bromo-[1,2,4]triazolo[4,3-a]pyrazine. LCMS (ESI): [M+H] 392. ^1H NMR (600 MHz, CHLOROFORM-d) δ 10.75 (br s, 1H), 9.04 (s, 1H), 9.03 (s, 1H), 7.24 (s, 1H), 4.99-5.06 (m, 1H), 4.01 (d, J=14.49 Hz, 1H), 3.64 (d, J=14.67 Hz, 1H), 3.40 (d, J=11.55 Hz, 1H), 2.75 (dd, J=5.78, 11.46 Hz, 1H), 2.61-2.72 (m, 2H), 2.32 (s, 4H), 1.84-1.92 (m, 1H), 1.30 (d, J=5.87 Hz, 4H). ^19F NMR (565 MHz, CHLOROFORM-d) 6-115.92 (br s, 1F). OGA Enzyme Inhibition Biochemical Assay
Recombinant full length human OGA enzyme was purchased from Origene. 4-MUGlCNAc substrate was purchased from Sigma. All other reagents were purchased from Sigma or Fisher. Assay buffer consists of the McIlvaine buffer system, pH 6.4 (0.2M Na2HPO4 mixed with 0.1M citric acid) and 0.01% BSA. Reactions consist of 1 nM OGA, 100 μM 4-MUGlcNAc (Km), and compound in a final volume of 10 μl. Reactions were incubated for 90 minutes at room temperature and quenched with 40 μl of 3M glycine, pH 10 and read on a Perkin Elmer Envision plate reader (Ex: 355 nm/Em: 460 nm). Compounds were tested with a 10-point dose-response starting from 20 μM with a 4-fold dilution. Data, as presented in Table 1 below, was fit using GraphPad Prism using a 4-parameter fit with variable slope.

Compound	pIC50
CC(=O)Nc1nc(F)c(CN2C[C@H](Oc3ncc4cnn(C)c4n3)C[C@@H]2C)s1 [Example 142, N-(4-fluoro-5-(((2S,4R)-2-methyl-4-((1-methyl-1H-pyrazolo[3,4-d]pyrimidin-6-yl)oxy)pyrrolidin-1-yl)methyl)thiazol-2-yl)acetamide]	> 9.00
CC(=O)Nc1ncc(CN2C[C@H](Oc3cn4nc(C)cc4cn3)C[C@@H]2C)s1 [Example 53, N-(5-(((2S,4R)-2-methyl-4-((2-methylpyrazolo[1,5-a]pyrazin-6-yl)oxy)pyrrolidin-1-yl)methyl)thiazol-2-yl)acetamide]	> 9.00
CC(=O)Nc1ncc(CN2C[C@H](Oc3nccc4sccc34)C[C@@H]2C)s1 [Example 24, N-(5-(((2S,4R)-2-methyl-4-(thieno[3,2-c]pyridin-4-yloxy)pyrrolidin-1-yl)methyl)thiazol-2-yl)acetamide]	8.60
CC(=O)Nc1ncc(CN2C[C@H](Oc3cccc4nccn34)C[C@@H]2C)s1 [Example 63, N-(5-(((2S,4R)-4-(imidazo[1,2-a]pyridin-5-yloxy)-2-methylpyrrolidin-1-yl)methyl)thiazol-2-yl)acetamide]	> 9.00
CC(=O)Nc1nc(F)c(CN2C[C@H](Oc3cnc4c(ccn4C)n3)C[C@@H]2C)s1 [Example 109, N-(4-fluoro-5-(((2S,4R)-2-methyl-4-((5-methyl-5H-pyrrolo[2,3-b]pyrazin-2-yl)oxy)pyrrolidin-1-yl)methyl)thiazol-2-yl)acetamide]	> 9.00
CC(=O)Nc1ncc(CN2C[C@H](Oc3nccc4occc34)C[C@@H]2C)s1 [Example 69, N-(5-(((2S,4R)-4-(furo[3,2-c]pyridin-4-yloxy)-2-methylpyrrolidin-1-yl)methyl)thiazol-2-yl)acetamide]	8.57
CC(=O)Nc1nc(F)c(CN2C[C@H](Oc3ccc4c(nnn4C)n3)C[C@@H]2C)s1 [Example 152, N-(4-fluoro-5-(((2S,4R)-2-methyl-4-((1-methyl-1H-[1,2,3]triazolo[4,5-b]pyridin-5-yl)oxy)pyrrolidin-1-yl)methyl)thiazol-2-yl)acetamide]	> 9.00
CC(=O)Nc1nc(F)c(CN2C[C@H](Oc3ncnn4cccc34)C[C@@H]2C)s1 [Example 106, N-(4-fluoro-5-(((2S,4R)-2-methyl-4-(pyrrolo[2,1-f][1,2,4]triazin-4-yloxy)pyrrolidin-1-yl)methyl)thiazol-2-yl)acetamide]	> 9.00
CC(=O)Nc1nc(F)c(CN2C[C@H](Oc3ccn4ccnc4c3)C[C@@H]2C)s1 [Example 43, N-(4-fluoro-5-(((2S,4R)-4-(imidazo[1,2-a]pyridin-7-yloxy)-2-methylpyrrolidin-1-yl)methyl)thiazol-2-yl)acetamide]	> 9.00
CC(=O)Nc1nc(F)c(CN2C[C@H](Oc3ccc4ccn(C)c4n3)C[C@@H]2C)s1 [Example 163, N-(4-fluoro-5-(((2S,4R)-2-methyl-4-((1-methyl-1H-pyrrolo[2,3-b]pyridin-6-yl)oxy)pyrrolidin-1-yl)methyl)thiazol-2-yl)acetamide]	> 9.00
CC(=O)Nc1nc(F)c(CN2C[C@H](Oc3ccc4c(cnn4C(F)F)n3)C[C@@H]2C)s1 [Example 153, N-(5-(((2S,4R)-4-((1-(difluoromethyl)-1H-pyrazolo[4,3-b]pyridin-5-yl)oxy)-2-methylpyrrolidin-1-yl)methyl)-4-fluorothiazol-2-yl)acetamide]	> 9.00
CC(=O)Nc1nc(F)c(CN2C[C@H](Oc3ccc4nn(C)nc4n3)C[C@@H]2C)s1 [Example 151, N-(4-fluoro-5-(((2S,4R)-2-methyl-4-((2-methyl-2H-[1,2,3]triazolo[4,5-b]pyridin-5-yl)oxy)pyrrolidin-1-yl)methyl)thiazol-2-yl)acetamide]	> 9.00
CC(=O)Nc1ncc(CN2C[C@H](Oc3nc4c(cc3C#N)CCCC4)C[C@@H]2C)s1 [Example 32, N-(5-(((2S,4R)-4-((3-cyano-5,6,7,8-tetrahydroquinolin-2-yl)oxy)-2-methylpyrrolidin-1-yl)methyl)thiazol-2-yl)acetamide]	7.96
CC(=O)Nc1nc(F)c(CN2C[C@H](Oc3ncc4ncn(C)c4n3)C[C@@H]2C)s1 [Example 113, N-(4-fluoro-5-(((2S,4R)-2-methyl-4-((9-methyl-9H-purin-2-yl)oxy)pyrrolidin-1-yl)methyl)thiazol-2-yl)acetamide]	> 9.00

Continued, values first:

pIC50	Compound
> 9.00	COc1cnc2c(O[C@@H]3C[C@H](C)N(Cc4sc(NC(C)=O)nc4F)C3)cnn2c1 [Example 121, N-(4-fluoro-5-(((2S,4R)-4-((6-methoxypyrazolo[1,5-a]pyrimidin-3-yl)oxy)-2-methylpyrrolidin-1-yl)methyl)thiazol-2-yl)acetamide]
> 9.00	CC(=O)Nc1nc(F)c(CN2C[C@H](Oc3ncnc4c(F)cccc34)C[C@@H]2C)s1 [Example 122, N-(4-fluoro-5-(((2S,4R)-4-((8-fluoroquinazolin-4-yl)oxy)-2-methylpyrrolidin-1-yl)methyl)thiazol-2-yl)acetamide]
> 9.00	COc1nc(O[C@@H]2C[C@H](C)N(Cc3sc(NC(C)=O)nc3F)C2)cc2cc(F)ccc12 [Example 131, N-(4-fluoro-5-(((2S,4R)-4-((6-fluoro-1-methoxyisoquinolin-3-yl)oxy)-2-methylpyrrolidin-1-yl)methyl)thiazol-2-yl)acetamide]
> 9.00	COc1ccc2ccc(O[C@@H]3C[C@H](C)N(Cc4sc(NC(C)=O)nc4F)C3)nc2c1 [Example 80, N-(4-fluoro-5-(((2S,4R)-4-((7-methoxyquinolin-2-yl)oxy)-2-methylpyrrolidin-1-yl)methyl)thiazol-2-yl)acetamide]
> 9.00	CC(=O)Nc1nc(F)c(CN2C[C@H](Oc3ccc4nc(C)nn4c3)C[C@@H]2C)s1 [Example 144, N-(4-fluoro-5-(((2S,4R)-2-methyl-4-((2-methyl-[1,2,4]triazolo[1,5-a]pyridin-6-yl)oxy)pyrrolidin-1-yl)methyl)thiazol-2-yl)acetamide]
> 9.00	CC(=O)Nc1nc(F)c(CN2C[C@H](Oc3ccn4nccc4c3)C[C@@H]2C)s1 [Example 49, N-(4-fluoro-5-(((2S,4R)-2-methyl-4-(pyrazolo[1,5-a]pyridin-5-yloxy)pyrrolidin-1-yl)methyl)thiazol-2-yl)acetamide]
> 9.00	COc1cc2cnc(O[C@@H]3C[C@H](C)N(Cc4sc(NC(C)=O)nc4F)C3)cc2cc1F [Example 130, N-(4-fluoro-5-(((2S,4R)-4-((6-fluoro-7-methoxyisoquinolin-3-yl)oxy)-2-methylpyrrolidin-1-yl)methyl)thiazol-2-yl)acetamide]
8.59	CC(=O)Nc1nc(F)c(CN2C[C@H](Oc3ncnc4cccnc34)C[C@@H]2C)s1 [Example 116, N-(4-fluoro-5-(((2S,4R)-2-methyl-4-(pyrido[3,2-d]pyrimidin-4-yloxy)pyrrolidin-1-yl)methyl)thiazol-2-yl)acetamide]
> 9.00	CC(=O)Nc1ncc(CN2C[C@H](Oc3cc(C(F)(F)F)c4cn(C)nc4n3)C[C@@H]2C)s1 [Example 12, N-(5-(((2S,4R)-2-methyl-4-((2-methyl-4-(trifluoromethyl)-2H-pyrazolo[3,4-b]pyridin-6-yl)oxy)pyrrolidin-1-yl)methyl)thiazol-2-yl)acetamide]
8.59	CC(=O)Nc1nc(F)c(CN2C[C@H](Oc3nnc4cnccn34)C[C@@H]2C)s1 [Example 174, N-(5-(((2S,4R)-4-([1,2,4]triazolo[4,3-a]pyrazin-3-yloxy)-2-methylpyrrolidin-1-yl)methyl)-4-fluorothiazol-2-yl)acetamide]
